Measured values published in patent US20130165368A1, “ANTIMICROBIAL COMPOUNDS” (priority 2010, published 2013).
≈ marks a conversion by molar mass, not a printed value. Read-outs that look alike come from different tables or passages of the source. Blank lines part the entries; values can stand above or below the compound they belong to.

Tests used:
Type in all cases: cell-based
Candida glabrata = assay: MIC agar dilution, micro-organism 20 (3943); conditions: Candida glabrata 3943
Experimental: (§1) Throughout the period of testing the microbial strains were subcultured and incubated for 18-20 hours at 37° C. on a weekly basis. Horse blood agar plates were used to sustain the micro-organisms both prior to and throughout testing. The alkoxylated alkanols listed in Table II below were obtained (these are obtainable from Sigma-Aldrich Company Ltd, Dorset, England), each having a GC purity of at least 97%.
(§2) Molar equivalent concentrations were used to allow comparison between compounds of differing molecular mass. Due to weighing difficulties, any compound in solid form was melted in a water bath prior to dilution. To make ten-times strength concentrations, which takes into account agar dilution, 0.0352 mmol of each compound was weighed into plastic universal bottles and 4 mL of sterile distilled water (SDW) was added. To produce a homogenous emulsion the universals were vortexed; once achieved the emulsions were serial diluted by adding 2 mL to 2 mL of SDW.
(§3) Myristyl alcohol and lauryl alcohol were re-weighed and dissolved in 25 μL of the polar solvent 1-methyl-2-pyrrolidone (M6762; Sigma-Aldrich) in sterile glass universals due to an inability to achieve an even suspension. To maintain an even emulsion in the presence of SDW 37.5 μL of the non-ionic detergent Tween 20 (P1379, Sigma-Aldrich) was also added. 3.9375 mL of SDW was added to these, to create a 4 mL volume; they were vortexed and diluted as before.
(§4) For every 100 mL of Isosensitest agar (IST) (CM0471; Oxoid, Basingstoke, England), 3.1 g of the IST powder was added to 100 mL SDW (as per manufacturer's instructions) and sterilised for 15 minutes at 121° C. Once sterilised, the molten agar was cooled to 50° C. in a water-bath. Subsequently 4.8 g of CCEY powder (BC2160; Bioconnections, Wetherby, England), also known as Brazier's medium, was added to 100 mL SDW for every 100 mL of agar needed. This was then sterilised for 15 minutes at 121° C. Once sterilised the molten agar was cooled to 50° C. in a water-bath and 4 mL of egg-yolk emulsion (S2073; TCS Biosciences Ltd, Buckingham, United Kingdom) and 1 mL of lysed defibrinated horse blood (HB035; TCS Biosciences Ltd, Buckingham, United Kingdom) were also added for every 100 mL needed. Horse blood lysis is achieved by dilution to half concentration with SDW; when fully lysed the mixture will turn dark red in colour.
(§5) 18 mL agar was added to each universal and then poured into sterile Petri dishes. This step creates a 1/10 dilution resulting in agar plates of the required strength. Control plates for each set of strains were created by adding 18 mL of agar to 2 mL of SDW.
(§6) Suspensions of each bacterial species were prepared with a density equal to that of a 0.5 McFarland standard using a densitometer. All suspensions were made using sterile distilled water and fresh 18-20 hour cultures. As a 0.5 McFarland standard contains 1.5×10^8 CFU/mL and the multipoint inoculators applies 1 μL spots of liquid, each bacterial suspension was diluted 1/15 (20 μL suspension to 280 μL sterile distilled water).
(§7) Bacterial suspensions were prepared from fresh 18-24 hour cultures as previously described. 1 μL of each strain was inoculated onto all 100 agar plates containing a different chemical concentration and the 2 control plates. This was done using a multipoint inoculator which inoculates 20 strains per plate. All plates were incubated for 22 hours at 37° C. in aerobic conditions.
(§8) Each plate was examined for bacterial growth after 22 and 48 hours, with each being incubated in between examinations. A positive result was recorded as growth of ≧10 colonies. A negative result was recorded as growth of <10 colonies as this is equivalent to 99.9% inhibition. The lowest concentration of chemical that inhibited growth was recorded as the MIC. The results are recorded in Table IV below, where the numbers are quoted in mmol/L. […]

Providencia rettgeri = assay: MIC agar dilution, micro-organism 3 (7475); conditions: Providencia rettgeri 7475
Experimental: as §1, §2, §3, §4, §5, §6, §7, §8

Candida albicans = assay: MIC agar dilution, micro-organism 19 (90028); conditions: Candida albicans 90028
Experimental: as §1, §2, §3, §4, §5, §6, §7, §8

[1] = system: Staphylococcus epidermidis; assay: MIC agar dilution, micro-organism 14 (11047); conditions: Staphylococcus epidermidis 11047
Experimental: as §1, §2, §3, §4, §5, §6, §7, §8

Escherichia coli = assay: MIC agar dilution, micro-organism 1 (10418); conditions: Escherichia coli 10418
Experimental: as §1, §2, §3, §4, §5, §6, §7, §8

[2] = system: Staphylococcus aureus (MRSA); assay: MIC agar dilution, micro-organism 12 (11939); conditions: Staphylococcus aureus (MRSA) 11939
Experimental: as §1, §2, §3, §4, §5, §6, §7, §8

Staphylococcus aureus = assay: MIC agar dilution, micro-organism 13 (6571); conditions: Staphylococcus aureus 6571
Experimental: as §1, §2, §3, §4, §5, §6, §7, §8

Steptococcus pyogenes = assay: MIC agar dilution, micro-organism 11 (8306); conditions: Steptococcus pyogenes 8306
Experimental: as §1, §2, §3, §4, §5, §6, §7, §8

Enterococcus faecium = assay: MIC agar dilution, micro-organism 16 (7171); conditions: Enterococcus faecium 7171
Experimental: as §1, §2, §3, §4, §5, §6, §7, §8

Bacillus subtilis = assay: MIC agar dilution, micro-organism 18 (9372); conditions: Bacillus subtilis 9372
Experimental: as §1, §2, §3, §4, §5, §6, §7, §8

Listeria monocytogenes = assay: MIC agar dilution, micro-organism 15 (11994); conditions: Listeria monocytogenes 11994
Experimental: as §1, §2, §3, §4, §5, §6, §7, §8

Enterococcus faecalis = assay: MIC agar dilution, micro-organism 17 (775); conditions: Enterococcus faecalis 775
Experimental: as §1, §2, §3, §4, §5, §6, §7, §8

[3] = system: Gram negative bacteria, Gram positive bacteria and pathogenic yeasts; assay: MIC agar dilution, summary statements over the micro-organisms tested (Tables I, IX); conditions: over the micro-organisms tested or some of them; read-out: MIC
Source text: For a better understanding, the present invention will now be more particularly described, by way of non-limiting example only, as follows. The micro-organisms shown in Table I overleaf were acquired from the National Collection of Type Cultures (NCTC), Colindale, United Kingdom; the American Type Culture Collection (ATCC), Manassas, United States and the National Collection of Pathogenic Fungi (NCPF), Colindale, United Kingdom. They include Gram negative bacteria, Gram positive bacteria and pathogenic yeasts.
as §1, §2, §3, §4, §5, §6
as §7, with “conditions. […]” for “conditions.”

[4] = Nakaseomyces glabratus, 22 h, 22 hrs, read-out: MIC
[5] = Nakaseomyces glabratus, 48 h, 48 hrs, read-out: MIC
[6] = Staphylococcus aureus, MRSA, 22 h, 22 hrs, read-out: MIC
[7] = Staphylococcus aureus, MRSA, 48 h, 48 hrs, read-out: MIC
[8] = Staphylococcus aureus, 22 h, 22 hrs, read-out: MIC
[9] = Staphylococcus aureus, 48 h, 48 hrs, read-out: MIC

MIC (Candida glabrata; 22 hrs): 880 µM (≈ 291 µg/mL) | MIC (Candida glabrata; 48 hrs): >880 µM | MIC (Providencia rettgeri; 22 hrs): >880 µM | MIC (Providencia rettgeri; 48 hrs): >880 µM | MIC (Candida albicans; 22 hrs): >880 µM | MIC (Candida albicans; 48 hrs): >880 µM | MIC ([1]; 22 hrs): >880 µM | MIC ([1]; 48 hrs): >880 µM | MIC (Escherichia coli; 22 hrs): >880 µM | MIC (Escherichia coli; 48 hrs): >880 µM | MIC ([2]; 22 hrs): >880 µM | MIC ([2]; 48 hrs): >880 µM | MIC (Staphylococcus aureus; 22 hrs): >880 µM | MIC (Staphylococcus aureus; 48 hrs): >880 µM | MIC (Steptococcus pyogenes; 22 hrs): 880 µM (≈ 291 µg/mL) | MIC (Steptococcus pyogenes; 48 hrs): >880 µM | MIC (Enterococcus faecium; 22 hrs): >880 µM | MIC (Enterococcus faecium; 48 hrs): >880 µM | MIC (Bacillus subtilis; 22 hrs): >880 µM | MIC (Bacillus subtilis; 48 hrs): >880 µM | MIC (Listeria monocytogenes; 22 hrs): >880 µM | MIC (Listeria monocytogenes; 48 hrs): >880 µM | MIC (Enterococcus faecalis; 22 hrs): >880 µM | MIC (Enterococcus faecalis; 48 hrs): >880 µM
SMILES: CCCCCCCCCCCCCCCCOCCOCCO [C2]

SMILES: CCCCCCCCCCO [D0, 1-Decanol, reference compound]
MIC (Candida glabrata; [4]): > 880 µM | MIC (Candida glabrata; [5]): > 880 µM | MIC (Providencia rettgeri; 22 hrs, read-out: MIC): > 880 µM | MIC (Providencia rettgeri; 48 hrs, read-out: MIC): > 880 µM | MIC (Candida albicans; 22 hrs, read-out: MIC): > 880 µM | MIC (Candida albicans; 48 hrs, read-out: MIC): > 880 µM | MIC ([1]; 22 hrs, read-out: MIC): > 880 µM | MIC ([1]; 48 hrs, read-out: MIC): > 880 µM | MIC (Escherichia coli; 22 hrs, read-out: MIC): > 880 µM | MIC (Escherichia coli; 48 hrs, read-out: MIC): > 880 µM | MIC [2, 6]: > 880 µM | MIC [2, 7]: > 880 µM | MIC (Staphylococcus aureus; [8]): > 880 µM | MIC (Staphylococcus aureus; [9]): > 880 µM | MIC (Steptococcus pyogenes; 22 h, 22 hrs, read-out: MIC): > 880 µM | MIC (Steptococcus pyogenes; 48 h, 48 hrs, read-out: MIC): > 880 µM | MIC (Enterococcus faecium; 22 hrs, read-out: MIC): > 880 µM | MIC (Enterococcus faecium; 48 hrs, read-out: MIC): > 880 µM | MIC (Bacillus subtilis; 22 hrs, read-out: MIC): > 880 µM | MIC (Bacillus subtilis; 48 hrs, read-out: MIC): > 880 µM | MIC (Listeria monocytogenes; 22 hrs, read-out: MIC): > 880 µM | MIC (Listeria monocytogenes; 48 hrs, read-out: MIC): > 880 µM | MIC (Enterococcus faecalis; 22 hrs, read-out: MIC): > 880 µM | MIC (Enterococcus faecalis; 48 hrs, read-out: MIC): > 880 µM | MIC [3]: > 880 µM

MIC (Candida glabrata; [4]): 440 µM (≈ 82 µg/mL) | MIC (Candida glabrata; [5]): ≥ 880 µM | MIC (Providencia rettgeri; 22 hrs, read-out: MIC): > 880 µM | MIC (Providencia rettgeri; 48 hrs, read-out: MIC): > 880 µM | MIC (Candida albicans; 22 hrs, read-out: MIC): > 880 µM | MIC (Candida albicans; 48 hrs, read-out: MIC): > 880 µM | MIC ([1]; 22 hrs, read-out: MIC): > 880 µM | MIC ([1]; 48 hrs, read-out: MIC): > 880 µM | MIC (Escherichia coli; 22 hrs, read-out: MIC): > 880 µM | MIC (Escherichia coli; 48 hrs, read-out: MIC): > 880 µM | MIC [2, 6]: 440 µM (≈ 82 µg/mL) | MIC [2, 7]: ≥ 880 µM | MIC (Staphylococcus aureus; [8]): 440 µM (≈ 82 µg/mL) | MIC (Staphylococcus aureus; [9]): ≥ 880 µM | MIC (Steptococcus pyogenes; 22 h, 22 hrs, read-out: MIC): 440 µM (≈ 82 µg/mL) | MIC (Steptococcus pyogenes; 48 h, 48 hrs, read-out: MIC): ≥ 880 µM | MIC (Enterococcus faecium; 22 hrs, read-out: MIC): > 880 µM | MIC (Enterococcus faecium; 48 hrs, read-out: MIC): > 880 µM | MIC (Bacillus subtilis; 22 hrs, read-out: MIC): > 880 µM | MIC (Bacillus subtilis; 48 hrs, read-out: MIC): > 880 µM | MIC (Listeria monocytogenes; 22 hrs, read-out: MIC): > 880 µM | MIC (Listeria monocytogenes; 48 hrs, read-out: MIC): > 880 µM | MIC (Enterococcus faecalis; 22 hrs, read-out: MIC): > 880 µM | MIC (Enterococcus faecalis; 48 hrs, read-out: MIC): > 880 µM
SMILES: CCCCCCCCCCCCO [L0, 1-Dodecanol, reference compound]
